Results published in patent EP0052437A1, “Antibacterial compounds, processes for their preparation and compositions containing them” (BEECHAM GROUP PLC, priority 1980, dated 1982).
In brackets after ≈: the same amount, converted by molar mass.

Columns and labels:
Format in all cases: cell-based
[1] = system: M. hyosynoviae ATCC 25591; experiment: Anti-mycoplasmal in vitro MIC; conditions: 144 h, Friis broth solidified with 0.9% agarose, 6 days incubation at 37°C
[2] = system: M. gallisepticum S6; experiment: Anti-mycoplasmal in vitro MIC; conditions: Mycoplasmoides gallisepticum, 144 h, Friis broth solidified with 0.9% agarose, 6 days incubation at 37°C
[3] = system: M. bovigenitalium ATCC 14173; experiment: Anti-mycoplasmal in vitro MIC; conditions: 144 h, Friis broth solidified with 0.9% agarose, 6 days incubation at 37°C
[4] = system: M. suipneumoniae NCTC 10110; experiment: Anti-mycoplasmal in vitro MIC; conditions: Mesomycoplasma hyopneumoniae, NCTC10110, 144 h, Friis broth solidified with 0.9% agarose, 6 days incubation at 37°C
[5] = system: M. suipneumoniae UCD 1; experiment: Anti-mycoplasmal in vitro MIC; conditions: Mesomycoplasma hyopneumoniae, UCD1, 144 h, Friis broth solidified with 0.9% agarose, 6 days incubation at 37°C
[6] = system: M. suipneumoniae Str. 11; experiment: Anti-mycoplasmal in vitro MIC; conditions: Mesomycoplasma hyopneumoniae, 144 h, Friis broth solidified with 0.9% agarose, 6 days incubation at 37°C
[7] = system: M. suipneumoniae MS 16; experiment: Anti-mycoplasmal in vitro MIC; conditions: Mesomycoplasma hyopneumoniae, MS16, 144 h, Friis broth solidified with 0.9% agarose, 6 days incubation at 37°C
[8] = system: M. hyorhinis ATCC 23234; experiment: Anti-mycoplasmal in vitro MIC; conditions: Mesomycoplasma hyorhinis, ATCC23234, 144 h, Friis broth solidified with 0.9% agarose, 6 days incubation at 37°C
[9] = system: Staph. aureus Russell; experiment: Human bacteria MIC; conditions: Staphylococcus aureus, nutrient agar with 5% chocolated horse blood, 18 hours at 37°C
Protocol: (§1) The values were determined by serial dilutions in nutrient agar with 5% chocolated horse blood after incubations for 18 hours at 37 °C.

[10] = system: Strep. 641848-C; experiment: Human bacteria MIC; conditions: nutrient agar with 5% chocolated horse blood, 18 hours at 37°C
Protocol: as §1

[11] = system: Staph. aureus Oxford; experiment: Human bacteria MIC; conditions: Staphylococcus aureus, nutrient agar with 5% chocolated horse blood, 18 hours at 37°C
Protocol: as §1

[12] = system: Ps. aeruginosa NCTC 10662; experiment: Human bacteria MIC; conditions: Pseudomonas aeruginosa, NCTC10662, nutrient agar with 5% chocolated horse blood, 18 hours at 37°C
Protocol: as §1

[13] = system: E. Coli NCTC 10418; experiment: Human bacteria MIC; conditions: Escherichia coli, NCTC10418, nutrient agar with 5% chocolated horse blood, 18 hours at 37°C
Protocol: as §1

[14] = system: Pasteurella multocida 1633; experiment: Human bacteria MIC; conditions: nutrient agar with 5% chocolated horse blood, 18 hours at 37°C
Protocol: as §1

[15] = system: P. mirabilis 889; experiment: Human bacteria MIC; conditions: Proteus mirabilis, nutrient agar with 5% chocolated horse blood, 18 hours at 37°C
Protocol: as §1

[16] = system: K. aerogenes A; experiment: Human bacteria MIC; conditions: Klebsiella aerogenes, nutrient agar with 5% chocolated horse blood, 18 hours at 37°C
Protocol: as §1

[17] = system: Staph. aureus W2827; experiment: Human bacteria MIC; conditions: Staphylococcus aureus, nutrient agar with 5% chocolated horse blood, 18 hours at 37°C
Protocol: as §1

[18] = system: M. dispar NCTC 10125; experiment: Anti-mycoplasmal in vitro MIC; conditions: 144 h, Friis broth solidified with 0.9% agarose, 6 days incubation at 37°C
[19] = system: M. suipneumoniae HK(2); experiment: Anti-mycoplasmal in vitro MIC; conditions: Mesomycoplasma hyopneumoniae, 144 h, Friis broth solidified with 0.9% agarose, 6 days incubation at 37°C
[20] = system: Bord. bronchiseptica BO8; experiment: Veterinary bacteria MIC; conditions: Bordetella bronchiseptica, Diagnostic Sensitivity Test Agar, 18 hours at 37°C
Protocol: (§2) The values were determined using a two fold serial dilutions.in Diagnostic Sensitivity Test Agar with an inoculum of 10^4 organisms and incubation for 18 hours at 37°C.

[21] = system: Staph. aureus Oxford; experiment: Veterinary bacteria MIC; conditions: Staphylococcus aureus, Diagnostic Sensitivity Test Agar, 18 hours at 37°C
Protocol: as §2

[22] = system: Strep. dysgalactiae SPD1; experiment: Veterinary bacteria MIC; conditions: Streptococcus dysgalactiae, Diagnostic Sensitivity Test Agar, 18 hours at 37°C
Protocol: as §2

[23] = system: Strep. agalactiae SPA1; experiment: Veterinary bacteria MIC; conditions: Streptococcus agalactiae, Diagnostic Sensitivity Test Agar, 18 hours at 37°C
Protocol: as §2

[24] = system: Past. multocida PA2; experiment: Veterinary bacteria MIC; conditions: Pasteurella multocida, Diagnostic Sensitivity Test Agar, 18 hours at 37°C
Protocol: as §2

[25] = system: Erysipelothrix rhusiopathiae NCTC 8163; experiment: Veterinary bacteria MIC; conditions: NCTC8163, Diagnostic Sensitivity Test Agar, 18 hours at 37°C
Protocol: as §2

[26] = system: Corynebacterium pyogenes CY1; experiment: Veterinary bacteria MIC; conditions: Trueperella pyogenes, Diagnostic Sensitivity Test Agar, 18 hours at 37°C
Protocol: as §2

[27] = system: Strep. uberis SPU1; experiment: Veterinary bacteria MIC; conditions: Streptococcus uberis, Diagnostic Sensitivity Test Agar, 18 hours at 37°C
Protocol: as §2

[28] = system: S. typhimurium S18; experiment: Veterinary bacteria MIC; conditions: Salmonella enterica, Diagnostic Sensitivity Test Agar, 18 hours at 37°C
Protocol: as §2

[29] = system: E. Coli NCTC 10418; experiment: Veterinary bacteria MIC; conditions: Escherichia coli, NCTC10418, Diagnostic Sensitivity Test Agar, 18 hours at 37°C
Protocol: as §2

[30] = system: Strep. suis (group D) SPS11; experiment: Veterinary bacteria MIC; conditions: Streptococcus suis, Diagnostic Sensitivity Test Agar, 18 hours at 37°C
Protocol: as §2

[31] = system: E. Coli E1; experiment: Veterinary bacteria MIC; conditions: Escherichia coli, Diagnostic Sensitivity Test Agar, 18 hours at 37°C
Protocol: as §2

[32] = system: Past. haemolytica PA5; experiment: Veterinary bacteria MIC; conditions: Mannheimia haemolytica, Diagnostic Sensitivity Test Agar, 18 hours at 37°C
Protocol: as §2

[33] = system: Bord. bronchiseptica BO9; experiment: Veterinary bacteria MIC; conditions: Bordetella bronchiseptica, Diagnostic Sensitivity Test Agar, 18 hours at 37°C
Protocol: as §2

[34] = system: Past. multocida PA1; experiment: Veterinary bacteria MIC; conditions: Pasteurella multocida, Diagnostic Sensitivity Test Agar, 18 hours at 37°C
Protocol: as §2

[35] = system: Staph. aureus 152; experiment: Veterinary bacteria MIC; conditions: Staphylococcus aureus, Diagnostic Sensitivity Test Agar, 18 hours at 37°C
Protocol: as §2

[36] = system: S. dublin S7; experiment: Veterinary bacteria MIC; conditions: Salmonella enterica, Diagnostic Sensitivity Test Agar, 18 hours at 37°C
Protocol: as §2

[37] = system: Staph. aureus B4; experiment: Veterinary bacteria MIC; conditions: Staphylococcus aureus, Diagnostic Sensitivity Test Agar, 18 hours at 37°C
Protocol: as §2

SMILES	MIC [1] [µg/mL]	MIC [2] [µg/mL]	MIC [3] [µg/mL]	MIC [4] [µg/mL]	MIC [5] [µg/mL]	MIC [6] [µg/mL]	MIC [7] [µg/mL]	MIC [8] [µg/mL]	MIC [9] [µg/mL]	MIC [10] [µg/mL]	MIC [11] [µg/mL]	MIC [12] [µg/mL]	MIC [13] [µg/mL]	MIC [14] [µg/mL]	MIC [15] [µg/mL]	MIC [16] [µg/mL]	MIC [17] [µg/mL]	MIC [18] [µg/mL]	MIC [19] [µg/mL]	MIC [20] [µg/mL]	also measured
C/C(=C\C(=O)OCc1cccc(C#N)c1)CC1OCC(CC2OC2C(C)C(C)O)C(O)C1O (stereo not drawn) [Example 2, m-Cyanobenzyl monate A]	0.05 (≈ 0.109 µM)	2.5 (≈ 5.44 µM)	≤ 0.01	0.05 (≈ 0.109 µM)	0.1 (≈ 0.218 µM)	0.05 (≈ 0.109 µM)	0.05 (≈ 0.109 µM)	0.025 (≈ 0.0544 µM)	2.5 (≈ 5.44 µM)	1 (≈ 2.18 µM)	1 (≈ 2.18 µM)	> 100	50 (≈ 109 µM)	1 (≈ 2.18 µM)	100 (≈ 218 µM)	100 (≈ 218 µM)	1 (≈ 2.18 µM)	0.025 (≈ 0.0544 µM)	0.1 (≈ 0.218 µM)	20 (≈ 43.5 µM)	MIC [21]: 0.625 µg/mL (≈ 1.36 µM); MIC [22]: 0.312 µg/mL (≈ 0.679 µM); MIC [23]: 0.625 µg/mL (≈ 1.36 µM); MIC [24]: 0.156 µg/mL (≈ 0.339 µM); MIC [25]: 20 µg/mL (≈ 43.5 µM); MIC [26]: > 80 µg/mL; MIC [27]: 0.312 µg/mL (≈ 0.679 µM); MIC [28]: 80 µg/mL (≈ 174 µM); MIC [29]: 80 µg/mL (≈ 174 µM); MIC [30]: 2.5 µg/mL (≈ 5.44 µM); MIC [31]: 80 µg/mL (≈ 174 µM); MIC [32]: 2.5 µg/mL (≈ 5.44 µM); MIC [33]: 10 µg/mL (≈ 21.8 µM); MIC [34]: 0.625 µg/mL (≈ 1.36 µM); MIC [35]: 0.625 µg/mL (≈ 1.36 µM); MIC [36]: 80 µg/mL (≈ 174 µM); MIC [37]: 1.25 µg/mL (≈ 2.72 µM)
C/C(=C\C(=O)OCc1ccccc1C#N)CC1OCC(CC2OC2C(C)C(C)O)C(O)C1O (stereo not drawn) [Example 1, o-Cyanobenzyl monate A]	≤ 0.01	2.5 (≈ 5.44 µM)	≤ 0.01	1 (≈ 2.18 µM)	1 (≈ 2.18 µM)	1 (≈ 2.18 µM)	0.5 (≈ 1.09 µM)	0.5 (≈ 1.09 µM)	1 (≈ 2.18 µM)	1 (≈ 2.18 µM)	1 (≈ 2.18 µM)	> 100	> 100	1 (≈ 2.18 µM)	> 100	> 100	2.5 (≈ 5.44 µM)	0.25 (≈ 0.544 µM)	1 (≈ 2.18 µM)	> 80	MIC [21]: 1.25 µg/mL (≈ 2.72 µM); MIC [22]: 0.312 µg/mL (≈ 0.679 µM); MIC [23]: 2.5 µg/mL (≈ 5.44 µM); MIC [24]: 0.156 µg/mL (≈ 0.339 µM); MIC [25]: 80 µg/mL (≈ 174 µM); MIC [26]: > 80 µg/mL; MIC [27]: 0.156 µg/mL (≈ 0.339 µM); MIC [28]: > 80 µg/mL; MIC [29]: > 80 µg/mL; MIC [30]: 10 µg/mL (≈ 21.8 µM); MIC [31]: > 80 µg/mL; MIC [32]: 10 µg/mL (≈ 21.8 µM); MIC [33]: 10 µg/mL (≈ 21.8 µM); MIC [34]: 1.25 µg/mL (≈ 2.72 µM); MIC [35]: 1.25 µg/mL (≈ 2.72 µM); MIC [36]: > 80 µg/mL; MIC [37]: 1.25 µg/mL (≈ 2.72 µM)
C/C(=C\C(=O)OCc1cccc(C#N)c1)CC1OCC(C/C=C/C(C)C(C)O)C(O)C1O (stereo not drawn) [Example 5, m-Cyanobenzyl monate C]	0.5 (≈ 1.13 µM)	10 (≈ 22.5 µM)	0.1 (≈ 0.225 µM)	1 (≈ 2.25 µM)	1 (≈ 2.25 µM)	0.5 (≈ 1.13 µM)	0.5 (≈ 1.13 µM)	0.5 (≈ 1.13 µM)	2.5 (≈ 5.64 µM)	2.5 (≈ 5.64 µM)	2.5 (≈ 5.64 µM)	> 100	> 100	10 (≈ 22.5 µM)	> 100	> 100	2.5 (≈ 5.64 µM)	0.1 (≈ 0.225 µM)	1 (≈ 2.25 µM)	> 80	MIC [21]: 2.5 µg/mL (≈ 5.64 µM); MIC [22]: 0.156 µg/mL (≈ 0.352 µM); MIC [23]: 2.5 µg/mL (≈ 5.64 µM); MIC [24]: 5 µg/mL (≈ 11.3 µM); MIC [25]: 80 µg/mL (≈ 180 µM); MIC [26]: > 80 µg/mL; MIC [27]: 0.156 µg/mL (≈ 0.352 µM); MIC [28]: > 80 µg/mL; MIC [29]: > 80 µg/mL; MIC [30]: > 80 µg/mL; MIC [31]: > 80 µg/mL; MIC [32]: 40 µg/mL (≈ 90.2 µM); MIC [33]: 20 µg/mL (≈ 45.1 µM); MIC [34]: 10 µg/mL (≈ 22.5 µM); MIC [35]: 2.5 µg/mL (≈ 5.64 µM); MIC [36]: > 80 µg/mL; MIC [37]: 2.5 µg/mL (≈ 5.64 µM)
